Assay results published in patent US10799512B2, “Estrogen combination for treatment of multiple sclerosis” (The Regents of the University of California, priority 2014, dated 2020).

Columns and labels:
Type in all cases: in vivo, human
[1] = Estriol blood/serum levels in treated patients
Procedure: (§1) Patients also underwent mammograms before and after the study.
Baseline characteristics were similar in both patient groups.
FIG. 6 depicts estriol blood levels induced by treatment with estriol 8 mg per day every day plus norethindrone 0.7 mg a day for 14 days every 3 months.

[2] = test system: female patients with active relapsing multiple sclerosis; assay: Safety and tolerability (gynecological and breast exams, adverse events); conditions: patients received Copaxone with estriol
Procedure: 158 patients were randomized to Copaxone® (glatiramer acetate) injections (20 mg/day) and oral estriol (8 mg/day) or to Copaxone® injections and placebo for a 24-month treatment duration. Gynecologists examined the patients before, during, and after the study. Each patient was examined at three- to six-month intervals during the trial. Patients also underwent mammograms before and after the study. In addition, at baseline, three months, six months, 12 months, 18 months, and 24 months, the investigators measured participants' estriol levels, and assessed for MS relapses and MS-related disabilities.
Baseline characteristics were similar in both patient groups. Participants' mean age at entry was approximately 38, and their mean EDSS score at entry was 2.2. […] To ensure breast and uterus safety, every three months the patients took norethindrone 0.7 mg once a day for 14 days.

[3] = test system: female patients with active relapsing multiple sclerosis; assay: Expanded Disability Status Scale (EDSS); conditions: over 24 months
Description: as §1
The Expanded Disability Status Scale (EDSS) is a standard composite disability score used in MS trials. Higher scores indicate worse disability. This composite covers a variety of disabilities (including ambulation, vision, cognition, coordination, etc.), but the scoring is not linear and the composite score is understood to be principally an indicator of the level of disability in ambulation.

[4] = test system: female patients with active relapsing multiple sclerosis; assay: Timed 25-foot walk test; conditions: between-group difference p=0.02; higher time = worse
Description: as §1
Another clinical disability measure with treatment effects was the timed 25-foot walk test. This test measures how many seconds it takes to walk 25 feet, with higher scores indicating worse disability. […] This beneficial effect of estriol treatment on 25-foot walking times is consistent with the beneficial effect of estriol treatment on EDSS scores since the latter is weighted toward being an indicator of ambulation.

[5] = test system: female patients with active relapsing multiple sclerosis; assay: Brain MRI, gadolinium enhancing lesions; conditions: at month 12; p=0.14
Description: as §1
Brain MRI is used extensively in MS as a surrogate marker for clinical effects. Brain white matter gadolinium enhancing lesions are a biomarker for relapses.

Compound	estriol blood levels induced ([1]; estriol 8 mg per day every day plus norethindrone 0.7 mg a day for 14 days every 3 months, FIG. 6)	estriol levels in serum ([1]; estriol-treated group, oral estriol 8 mg/day)	Breast - Fibrocystic breast disease on clinical exam [2] [subjects]	Uterine fibroids on ultrasound [2] [subjects]	EDSS scores, slope ([3]; FIG. 4, p=0.06 (estriol), p=0.90 (placebo))	change in EDSS scores ([3]; decrease = improvement)	change in 25-foot walk time [4]	reduction in number of subjects with brain MRI scans positive for enhancing lesions [5] [%]
C[C@]12CC[C@@H]3c4ccc(O)cc4CC[C@H]3[C@@H]1C[C@@H](O)[C@@H]2O [estriol]	about 10 ng/ml	mid-pregnancy range	5	8				
glatiramer acetate [Copaxone® plus placebo]					−0.01	no change	significantly increased	22
